Source: US10375956B2, “Herbicidally active 2-(substituted-phenyl)-cyclopentane-1,3-dione compounds and derivatives thereof” (Syngenta Limited, priority 2013, dated 2019)

How the values were obtained:
Format in all cases: in vivo
[1] = test system: Zea mays (ZEAMX, corn/maize); assay: Test 1 glasshouse assay, post-emergence herbicidal activity; conditions: 312 h, post-emergence (Example 1B Table 1), after 13 days, read-out: Percentage phytotoxicity ZEAMX
Protocol: (§1) Seeds of a variety of test species are sown in standard soil in pots. After cultivation for one day (pre-emergence) or after 8 days cultivation (post-emergence) under controlled conditions in a glasshouse (at 24/16° C., day/night; 14 hours light; 65% humidity), the plants are sprayed with an aqueous spray solution derived from the formulation of the “technical” (i.e. unformulated) active ingredient in acetone/water (50:50) solution containing 0.5% Tween 20 (polyoxyethylene sorbitan monolaurate, CAS Registry Number 9005-64-5). The test plants are then grown on under controlled conditions in a glasshouse (at 24/16° C., day/night; 14 hours light; 65% humidity) and watered twice daily. After 13 days for pre- or post-emergence, the test is evaluated visually, and an assessed percentage phytotoxicity score is given for each herbicidal application on each plant species (where 100%=total damage to plant; 0%=no damage to plant).
(§2) Test plants include the following: Abutilon theophrasti (ABUTH) and Amaranthus retroflexus (AMARE); these are all dicotyledonous (broadleaved) weeds. Setaria faberi (SETFA), Alopecurus myosuroides (ALOMY), and Echinochloa crus-galli (ECHCG); these are all grassy monocotyledonous weeds. Also: Zea mays (ZEAMX, corn/maize), which can be a grassy weed (“volunteer” corn) in some circumstances.

[2] = test system: Abutilon theophrasti (ABUTH); assay: as above; conditions: 312 h, post-emergence (Example 1B Table 1), after 13 days, read-out: Percentage phytotoxicity ABUTH
Protocol: as §1, §2

[3] = test system: Setaria faberi (SETFA); assay: as above; conditions: 312 h, post-emergence (Example 1B Table 1), after 13 days, read-out: Percentage phytotoxicity SETFA
Protocol: as §1, §2

[4] = test system: Amaranthus retroflexus (AMARE); assay: as above; conditions: 312 h, post-emergence (Example 1B Table 1), after 13 days, read-out: Percentage phytotoxicity AMARE
Protocol: as §1, §2

[5] = test system: Avena fatua (AVEFA); assay: as above; conditions: 312 h, post-emergence (Example 1B Table 2), after 13 days, read-out: Percentage phytotoxicity AVEFA
Protocol: as §1
(§3) Lolium perenne (LOLPE), Alopecurus myosuroides (ALOMY), Echinochloa crus-galli (ECHCG), and Avena fatua (AVEFA); these are all grassy monocotyledonous weeds. Cool climate crop plant: Triticum aestivum (TRZAW, winter wheat).

[6] = test system: Lolium perenne (LOLPE); assay: as above; conditions: 312 h, post-emergence (Example 1B Table 2), after 13 days, read-out: Percentage phytotoxicity LOLPE
Protocol: as §1, §3

[7] = test system: Triticum aestivum (TRZAW, winter wheat); assay: as above; conditions: 312 h, post-emergence (Example 1B Table 2), after 13 days, crop plant, read-out: Percentage phytotoxicity TRZAW
Protocol: as §1, §3

[8] = test system: Echinochloa crus-galli (ECHCG); assay: as above; conditions: 312 h, after 13 days, read-out: Percentage phytotoxicity ECHCG
Protocol: as §1, §2, §3

[9] = test system: Alopecurus myosuroides (ALOMY); assay: as above; conditions: 312 h, after 13 days, read-out: Percentage phytotoxicity ALOMY
Protocol: as §1, §2, §3

[10] = test system: Echinochloa crus-galli (ECHCG); assay: Test 1 glasshouse assay, pre-emergence herbicidal activity; conditions: 312 h, visual evaluation after 13 days, read-out: Percentage phytotoxicity ECHCG
Protocol: as §1
(§4) Test plants include the following: Abutilon theophrasti (ABUTH), Amaranthus retroflexus (AMARE): these are dicotyledonous (broadleaved) weeds. Setaria faberi (SETFA), Alopecurus myosuroides (ALOMY), Echinochloa crus-galli (ECHCG): these are grassy monocotyledonous weeds. Also: Zea mays (ZEAMX, corn/maize), which can be a grassy weed (“volunteer” corn) in some circumstances.

[11] = test system: Zea mays (ZEAMX, corn/maize); assay: as above; conditions: 312 h, visual evaluation after 13 days, read-out: Percentage phytotoxicity ZEAMX
Protocol: as §1, §4

[12] = test system: Abutilon theophrasti (ABUTH); assay: as above; conditions: 312 h, visual evaluation after 13 days, read-out: Percentage phytotoxicity ABUTH
Protocol: as §1, §4

[13] = test system: Alopecurus myosuroides (ALOMY); assay: as above; conditions: 312 h, visual evaluation after 13 days, read-out: Percentage phytotoxicity ALOMY
Protocol: as §1, §4

[14] = test system: Setaria faberi (SETFA); assay: as above; conditions: 312 h, visual evaluation after 13 days, read-out: Percentage phytotoxicity SETFA
Protocol: as §1, §4

[15] = test system: Amaranthus retroflexus (AMARE); assay: as above; conditions: 312 h, visual evaluation after 13 days, read-out: Percentage phytotoxicity AMARE
Protocol: as §1, §4

[16] = post-emergence (Example 1B Table 1), 31.25 g/ha
[17] = post-emergence (Example 1B Table 1)
[18] = post-emergence (Example 1B Table 2), 62.5 g/ha
[19] = post-emergence (Example 1B Table 2)

`C#CCC1CC(=O)C(c2c(C)cc(-c3ncc(Cl)cn3)cc2C)C1=O` (stereo not shown) [Compound A5, 2-[4-(5-chloropyrimidin-2-yl)-2,6-dimethylphenyl]-4-prop-2-ynylcyclopentane-1,3-dione] was tested. Which pest or weed control at 31.25 g/ha ([1]; 31.25 g/ha) did it give?
The pest or weed control at 31.25 g/ha was 100%.

And the pest or weed control at 250 g/ha [1]?
Its pest or weed control at 250 g/ha is 100%.

And the pest or weed control at 31.25 g/ha ([2]; 31.25 g/ha)?
The pest or weed control at 31.25 g/ha was 30%.

And the pest or weed control at 250 g/ha [2]?
The pest or weed control at 250 g/ha was 90%.

What about the pest or weed control at 31.25 g/ha ([3]; 31.25 g/ha) of the same molecule?
The pest or weed control at 31.25 g/ha was 100%.

What about the pest or weed control at 250 g/ha [3] of the same molecule?
The pest or weed control at 250 g/ha was 100%.

And the pest or weed control at 31.25 g/ha ([4]; 31.25 g/ha)?
Its pest or weed control at 31.25 g/ha is 30%.

And the pest or weed control at 250 g/ha [4]?
The pest or weed control at 250 g/ha was 90%.

What about the pest or weed control at 62.5 g/ha ([5]; 62.5 g/ha) of the same molecule?
The pest or weed control at 62.5 g/ha was 100%.

What about the pest or weed control at 250 g/ha ([5]; 250 g/ha) of the same molecule?
Its pest or weed control at 250 g/ha is 100%.

What about the pest or weed control at 62.5 g/ha ([6]; 62.5 g/ha) of the same molecule?
The pest or weed control at 62.5 g/ha was 90%.

And the pest or weed control at 250 g/ha ([6]; 250 g/ha)?
Its pest or weed control at 250 g/ha is 100%.

What about the plant injury at 62.5 g/ha ([7]; 62.5 g/ha) of the same molecule?
Its plant injury at 62.5 g/ha is 80%.

And the plant injury at 250 g/ha ([7]; 250 g/ha)?
Its plant injury at 250 g/ha is 90%.

What about the pest or weed control at 31.25 g/ha [8, 16] of the same molecule?
The pest or weed control at 31.25 g/ha was 100%.

What about the pest or weed control at 250 g/ha [8, 17] of the same molecule?
The pest or weed control at 250 g/ha was 100%.

What about the pest or weed control at 62.5 g/ha [8, 18] of the same molecule?
The pest or weed control at 62.5 g/ha was 100%.

And the pest or weed control at 250 g/ha [8, 19]?
The pest or weed control at 250 g/ha was 100%.

What about the pest or weed control at 31.25 g/ha [9, 16] of the same molecule?
Its pest or weed control at 31.25 g/ha is 80%.

What about the pest or weed control at 250 g/ha [9, 17] of the same molecule?
The pest or weed control at 250 g/ha was 100%.

And the pest or weed control at 62.5 g/ha [9, 18]?
The pest or weed control at 62.5 g/ha was 90%.

And the pest or weed control at 250 g/ha [9, 19]?
The pest or weed control at 250 g/ha was 100%.

What about the pest or weed control at 250 g/ha [10] of the same molecule?
Its pest or weed control at 250 g/ha is 100%.

What about the pest or weed control at 250 g/ha [11] of the same molecule?
The pest or weed control at 250 g/ha was 100%.

What about the pest or weed control at 250 g/ha [12] of the same molecule?
The pest or weed control at 250 g/ha was 70%.

What about the pest or weed control at 250 g/ha [13] of the same molecule?
The pest or weed control at 250 g/ha was 100%.

What about the pest or weed control at 250 g/ha [14] of the same molecule?
The pest or weed control at 250 g/ha was 100%.

And the pest or weed control at 250 g/ha [15]?
Its pest or weed control at 250 g/ha is 100%.

What does the source list for `C#CCC1CC(=O)C(c2c(C)cc(-n3cc(Cl)cn3)cc2C)C1=O` (stereo not shown) [Compound A9]?
pest or weed control at 250 g/ha [1]: 100%; pest or weed control at 250 g/ha [2]: 80%; pest or weed control at 250 g/ha [3]: 100%; pest or weed control at 250 g/ha [4]: 80%; pest or weed control at 250 g/ha [8, 17]: 100%; pest or weed control at 250 g/ha [9, 17]: 100%; pest or weed control at 250 g/ha [10]: 100%; pest or weed control at 250 g/ha [11]: 80%; pest or weed control at 250 g/ha [12]: 40%; pest or weed control at 250 g/ha [13]: 70%; pest or weed control at 250 g/ha [14]: 100%; pest or weed control at 250 g/ha [15]: 70%
